This note sets out measurements from PMC3895568, “Isolation and characterization of Leucine dehydrogenase from a thermophilic Citrobacter freundii JK-91strain Isolated from Jask Port” (Iranian Journal of Microbiology, 2013).

In general, Km refers to the substrate concentration at which the rate is half of its maximum.

Molecules are shown by their SMILES.

The assay relates to T1, LeuDH (Leucine dehydrogenase, EC 1.4.1.9).
T1 construct: native enzyme purified from isolate JK-91 (ammonium sulfate, DEAE-Toyopearl, TSK gel G3000SW); subunit 40 kDa, about 320 kDa, octamer
Briefly: NADH formation at […] nm, oxidative deamination. Type of assay: biochemical, Citrobacter freundii. The following applies: co-substrate NAD+; standard assay 50 mM glycine-NaOH pH 10.4, 100 mM NaCl, 2.5 mM NAD+; exact conditions and temperature of the kinetics not stated.

Consider `CC(C)C[C@H](N)C(=O)O` [L-leucine], for which the Michaelis constant (Km) amounted to 1200 µM.
